Experimental data taken from the supplement of paper PMC4862054.

Columns and labels:
Assay in all cases: normalised viability (% of control), CellTiter-Blue; higher = more viable cells (about 100 = DMSO control)
[1] = system: MDA-MB-453; conditions: 10 nM; incubation time: 72 h
Experimental: (§1)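 DSRT, CellTiter-Blue viability, 72 h incubation. Signal is normalised to DMSO and benzethonium chloride controls. Value is the normalised response at dose 3.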

[2] = system: MDA-MB-231; conditions: 100 nM; incubation time: 72 h
Experimental: as §1

[3] = system: CAL-85-1; conditions: 10 nM; incubation time: 72 h
Experimental: as §1

[4] = system: MFM-223; conditions: 100 nM; incubation time: 72 h
Experimental: as §1

[5] = system: MDA-MB-436; conditions: 100 nM; incubation time: 72 h
Experimental: as §1

[6] = system: HDQ-P1; conditions: 10 nM; incubation time: 72 h
Experimental: as §1

[7] = system: HCC1599; conditions: 100 nM; incubation time: 72 h
Experimental: as §1

[8] = system: CAL-120; conditions: 100 nM; incubation time: 72 h
Experimental: as §1

[9] = system: SK-BR-3; conditions: 100 nM; incubation time: 72 h
Experimental: as §1

[10] = system: BT-549; conditions: 100 nM; incubation time: 72 h
Experimental: as §1

[11] = system: HCC1143; conditions: 100 nM; incubation time: 72 h
Experimental: as §1

[12] = system: CAL-51; conditions: 10 nM; incubation time: 72 h
Experimental: as §1

[13] = system: DU-4475; conditions: 10 nM; incubation time: 72 h
Experimental: as §1

[14] = system: Hs578T; conditions: 100 nM; incubation time: 72 h
Experimental: as §1

[15] = system: MDA-MB-468; conditions: 100 nM; incubation time: 72 h
Experimental: as §1

[16] = system: CAL-148; conditions: 10 nM; incubation time: 72 h
Experimental: as §1

[17] = system: BT-474; conditions: 100 nM; incubation time: 72 h
Experimental: as §1

[18] = system: HCC1937; conditions: 100 nM; incubation time: 72 h
Experimental: as §1

[19] = system: MDA-MB-231; conditions: incubation time: 72 h
Outline: (§2)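 Compound dissolved in 5 µl medium was pre-loaded into 384-well plates, and breast cancer cell lines in 20 µl suspension were seeded on top and incubated 72 h. After adding 2.5 µl CellTiter-Blue reagent for 2 h at 37 °C, fluorescence was read at 560/590 nm. Plates were normalised to vehicle (100) and a positive kill control (0), with Z'-factor quality control. Each value is normalised viability at a single listed concentration from the series.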

[20] = system: CAL-85-1; conditions: incubation time: 72 h
Outline: as §2

[21] = system: CAL-120; conditions: incubation time: 72 h
Outline: as §2

[22] = system: SK-BR-3; conditions: incubation time: 72 h
Outline: as §2

[23] = system: BT-549; conditions: incubation time: 72 h
Outline: as §2

[24] = system: HCC1143; conditions: incubation time: 72 h
Outline: as §2

[25] = system: DU-4475; conditions: incubation time: 72 h
Outline: as §2

[26] = system: Hs578T; conditions: incubation time: 72 h
Outline: as §2

[27] = system: MDA-MB-468; conditions: incubation time: 72 h
Outline: as §2

[28] = system: CAL-148; conditions: incubation time: 72 h
Outline: as §2

[29] = system: BT-474; conditions: incubation time: 72 h
Outline: as §2

C=CCn1c(=O)c2cnc(Nc3ccc(N4CCN(C)CC4)cc3)nc2n1-c1cccc(C(C)(C)O)n1 [MK1775]
Conditions	normalised viability [%]
[1]	100
[2]	88.1
[3]	81.4
[4]	83.3
[5]	86.3
[6]	114
[7]	99.4
[8]	75.8
[9]	62.1
[10]	97.4
[11]	94.8
[12]	94.1
[13]	109
[14]	83.2
[15]	95.5
[16]	87.4
[17]	94.6
[18]	78.2

normalised viability [%]
Conditions	3 nM	10 nM	30 nM	100 nM	1000 nM	10000 nM
[19]	–	84	–	–	26.9	16.9
[20]	79.6	–	80.9	78.6	–	–
[21]	–	91.2	–	–	26	9.09
[22]	–	79.8	–	–	9.36	10.2
[23]	–	103	–	–	31	9.32
[24]	–	109	–	–	55.7	23.7
[25]	87.8	–	98.3	75.7	–	–
[26]	–	111	–	–	34.4	16.2
[27]	–	110	–	–	46.3	10.1
[28]	85.1	–	92.8	81.5	–	–
[29]	–	94	–	–	33.9	35.7

CN(Cc1cnc2nc(N)nc(N)c2n1)c1ccc(C(=O)N[C@@H](CCC(=O)O)C(=O)O)cc1 [Methotrexate]
Conditions	normalised viability [%]
[1]	122
[2]	85.9
[3]	104
[4]	98.2
[5]	80.7
[6]	95.7
[7]	106
[8]	50.4
[9]	49
[10]	87.2
[11]	69.3
[12]	107
[13]	122
[14]	78.6
[15]	46.3
[16]	105
[17]	124
[18]	96.2

normalised viability [%]
Conditions	3 nM	10 nM	30 nM	100 nM	1000 nM	10000 nM
[19]	–	94.2	–	–	94.7	94.1
[20]	98.5	–	84	78	–	–
[21]	–	85.2	–	–	46.9	55
[22]	–	95.9	–	–	52	52.8
[23]	–	91.4	–	–	78.6	95.7
[24]	–	87.8	–	–	68.9	65.4
[25]	102	–	99.3	101	–	–
[26]	–	106	–	–	86.5	79.4
[27]	–	90.7	–	–	41.5	42.7
[28]	99.8	–	91.5	67.3	–	–
[29]	–	115	–	–	118	128
